Values quoted from earlier work as cited in patent US4350696A, “Imidazole derivatives, process for their preparation and pharmaceutical compositions thereof” (Pfizer Inc., priority 1980, dated 1982).

Assays:
[1] = system: platelet clumping and embolisation in the lungs; conditions: rabbit, intravenous injection of arachidonic acid
[2] = system: human blood platelet aggregation; conditions: in vitro, a variety of aggregating agents
aggregation of platelets = conditions: rats in vivo, abdominal aorta loop

Row | Compound | protection from lethal effect of intravenous arachidonic acid [1] | inhibitory activity against platelet aggregation [2] | prevention of platelet aggregation in extra corporeal loop (aggregation of platelets)
1 | CC(=O)Oc1ccccc1C(=O)O [aspirin] | protect the rabbit from the lethal effect of the injection | show inhibitory activity | –
2 | O=C1C(CC[S+]([O-])c2ccccc2)C(=O)N(c2ccccc2)N1c1ccccc1 (stereo not shown) [sulphinpyrazone] | – | show inhibitory activity | prevent the aggregation of platelets
